# Laboratory results published in PubChem BioAssay (NCI).
#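 Briefly, cells in 96-well plates were exposed to five compound concentrations for 48 h, and endpoints were estimated by linear interpolation. TGI: concentration producing complete growth inhibition.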
# Columns and labels:
# Assay in all cases: DTP human tumour cell line panel, 48 h
# LOX IMVI melanoma = test system: LOX IMVI melanoma
# MALME-3M melanoma = test system: MALME-3M melanoma
# RPMI-8226 leukemia = test system: RPMI-8226 leukemia
# PC-3 prostate = test system: PC-3 prostate
# HT29 colon = test system: HT29 colon
# HOP-92 NSCLC = test system: HOP-92 NSCLC
# SW-620 colon = test system: SW-620 colon
# NCI-H226 lung = test system: NCI-H226 lung
# BT-549 breast = test system: BT-549 breast
# KM12 colon = test system: KM12 colon
# U251 CNS = test system: U251 CNS
# OVCAR-8 ovarian = test system: OVCAR-8 ovarian
# SNB-19 CNS = test system: SNB-19 CNS
# MDA-N = test system: MDA-N
# HS 578T breast = test system: HS 578T breast
# HCC-2998 colon = test system: HCC-2998 colon
SMILES,TGI (LOX IMVI melanoma) [µM],TGI (MALME-3M melanoma) [µM],TGI (RPMI-8226 leukemia) [µM],TGI (PC-3 prostate) [µM],TGI (HT29 colon) [µM],TGI (HOP-92 NSCLC) [µM],TGI (SW-620 colon) [µM],TGI (NCI-H226 lung) [µM],TGI (BT-549 breast) [µM],TGI (KM12 colon) [µM],TGI (U251 CNS) [µM],TGI (OVCAR-8 ovarian) [µM],TGI (SNB-19 CNS) [µM],TGI (MDA-N) [µM],TGI (HS 578T breast) [µM],TGI (HCC-2998 colon) [µM]
COC(=O)c1ccc(NCc2cc(O)c3ccccc3c2O)cc1,11.5,5.95,15.1,33.5,48.5,9.97,32.3,40,30.7,> 50,40.1,93.4,> 81.8,3.98,98.2,39.9
O=c1[nH]ncc2[nH]c3c(c12)CCCc1ccccc1-3,> 100,> 100,84.9,> 100,> 100,> 100,> 100,> 100,> 100,> 100,> 100,> 100,> 100,98.8,45.8,61.4
Cc1nc(SCC(=O)Nc2ccccc2)c2sc(=S)n(-c3ccccc3)c2n1,> 10,> 10,> 10,> 10,> 10,> 10,> 10,8.99,> 10,> 10,> 10,> 10,> 10,> 10,> 10,> 10
C[C@H](C(=O)N1C(=O)O[C@@H](c2ccccc2)[C@H]1C)[C@H](c1ccccc1)N(Cc1ccccc1)OC(=O)c1ccccc1,> 100,> 100,> 100,> 100,> 100,> 100,> 100,> 100,> 100,> 100,> 100,> 100,> 100,> 100,> 100,85.3
CCCCC/C=C1\CCC(CN2CCOCC2)C1=O (stereo unspecified),10.5,18.9,3.02,30.9,35.7,29,11.5,33.5,32.3,10.7,23.8,13,32.4,25.4,> 100,27.7
NC(Cc1ccc2oc3cc(=O)c4ccccc4c-3nc2c1)C(=O)O (stereo unspecified),44.1,17.6,> 88.3,> 100,72.6,> 100,80.9,73.1,40.5,> 100,> 87.1,> 100,> 97.7,14.8,59.6,40.2
c1ccc(N=C2SC(c3ccccc3)CN2C23CC4CC(CC(C4)C2)C3)cc1 (stereo unspecified),> 100,> 100,> 100,> 100,> 100,> 100,> 100,> 100,> 100,> 100,> 100,> 100,> 100,> 100,> 100,> 100
COC(=O)c1ccc(/C=N/c2cc(C)nn2-c2ccccc2)cc1,> 100,> 100,> 100,> 100,92.1,> 100,> 100,> 100,> 100,> 100,> 100,> 100,> 100,> 100,> 100,8.05
Fc1ccc(C(OCCN2CC3CC2CN3CCCc2ccccc2)c2ccc(F)cc2)cc1 (stereo unspecified),19.2,8.27,6.54,17.7,15.5,26.7,24.1,23.9,24,21.2,19.5,10.1,27.3,19,25.8,5.7
Cc1ccc(-c2n[nH]c(=O)n2N)cc1,> 100,> 100,> 100,> 100,> 100,> 100,> 100,> 100,> 100,> 100,> 100,> 100,> 100,> 100,> 100,> 100
CC1=CC(=O)c2cccc(O)c2C1=O,8.6,2.98,> 40.3,5.7,10.4,3.29,4.08,14.4,3.13,25.3,30.2,15.4,17.4,3.34,7.13,16.8
N=C(N)SC1c2ccccc2-c2cc([N+](=O)[O-])ccc21 (stereo unspecified),22.1,16.9,30.1,13.8,13.5,33.5,22.1,21,19.3,11.4,8.95,37.1,14.3,10.9,12.2,9.84
OC(CCN1CCN(CCOC(c2ccc(F)cc2)c2ccc(F)cc2)CC1)c1ccccc1 (stereo unspecified),28.2,26.8,43,26.7,21.6,23.8,57.4,34.4,27.1,44,27.8,25.7,30.7,28.5,37.3,12.4
C/C(=N/NC(=S)Nc1cccc(Cl)c1)c1cccc(/C(C)=N\NC(=S)Nc2cccc(Cl)c2)n1,> 38.5,22.4,15.9,> 58.1,> 42.4,> 100,> 100,5.44,> 100,> 100,> 59.3,> 37.5,> 100,> 65.7,> 74.6,> 100
COc1cc(CSc2ccc(O)cc2)cc(O)c1O,> 100,> 100,56.3,> 100,46.8,50.4,> 100,65.5,63.6,91.9,> 100,58.2,> 100,> 100,> 100,> 100
CC(C)C(OC(=O)c1cc(NC(=S)c2ccccc2)ccc1Cl)C(C)C,70.4,> 57.8,> 73.5,38.4,34.4,34.4,> 89.6,45.5,91.1,39.6,> 61.5,> 100,> 100,39.8,69,> 53.1
